According to patent publication US20240279278A1, “NMU RECEPTOR 2 AGONISTS” (Boehringer Ingelheim International GmbH, priority 2023, published 2024):
≈ marks a conversion by molar mass, not a printed value. Residues, ends and D or L forms follow the SMILES beside them.

How the values were obtained:
human NMUR1 receptor = target: T1, human NMUR1 receptor (Homo sapiens, UniProt Q9HB89); experiment: IP1 Gq HTRF assay, activation of human NMUR1 in buffer; type: cell-based; details: CHO-K1 cells expressing human NMUR1, stimulation buffer with 0.1% BSA; read-out: EC50 (hNMUR1) buffer
T1 construct: expressed in transfected cells; host or cells: CHO-K1
T1 sequence (Q9HB89 1-426): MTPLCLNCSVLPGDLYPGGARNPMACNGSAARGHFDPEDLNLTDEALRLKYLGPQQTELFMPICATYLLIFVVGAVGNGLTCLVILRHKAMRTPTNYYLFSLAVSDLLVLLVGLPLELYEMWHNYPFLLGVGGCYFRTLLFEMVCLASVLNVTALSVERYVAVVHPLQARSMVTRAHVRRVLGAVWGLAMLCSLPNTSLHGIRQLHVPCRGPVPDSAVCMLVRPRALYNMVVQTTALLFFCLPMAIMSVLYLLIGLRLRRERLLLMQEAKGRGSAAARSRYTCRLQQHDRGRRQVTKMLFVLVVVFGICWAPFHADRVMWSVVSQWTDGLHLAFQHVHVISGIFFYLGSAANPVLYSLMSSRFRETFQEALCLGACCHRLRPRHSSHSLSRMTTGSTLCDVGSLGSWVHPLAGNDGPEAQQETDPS
In short: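 IP-One HTRF competition (665/620 nm ratio) read after 1 h agonist exposure at 37 °C in pH 7.4 HEPES/HBSS stimulation buffer containing 50 mM LiCl, 0.1% BSA, 1% DMSO. Cells: CHO-K1 stably expressing human NMUR2 or NMUR1. EC50 by 4-parameter nonlinear regression of 8-point curves.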

physchem = type: physicochemical
Method: Example 6: Solubility Determination
Peptides (as TFA-salts) were weighed out in a filter unit (Mini-UniPrep Syringeless Filter 0.45 μm, Whatman PVDF), and 0.1 M phosphate buffer at pH 6 to 8 was added to achieve 10 mg/mL final peptide concentration. The peptides were dissolved by shaking the filter units horizontally at 350 rpm for 2 hours at room temperature. Samples were then filtered to remove any insoluble particles. Controls were prepared by weighing out the corresponding peptide solid material and dissolving it in an appropriate vehicle (e.g. buffer or DMSO) to a final concentration of 1 mg/mL. Both, the control and sample were analyzed by reversed phase chromatography. The area under the peak of the sample was compared to the control and the solubility was calculated based on that ratio. The pH was measured and recorded for each sample.

Row | SMILES | EC50 (human NMUR1 receptor) | solubility at 2 h (physchem; pH 7.3) | solubility at 2 h (physchem; pH 7.2)
1 | CCCC[C@H](NC(=O)[C@H](CC(C)C)N(C)C(=O)[C@H](Cc1ccccc1)NC(=O)[C@H](Cc1ccc(O)cc1)NC(=O)CN1CCN(CCNC(=O)CN(C)C(=O)CN(C)C(=O)CN(C)C(=O)CN(C)C(=O)CN(C)C(=O)CN(C)C(=O)CN(C)C(=O)CN(C)C(=O)CN(C)C(=O)CN(C)C(=O)CN(C)C(=O)CN(C)C(=O)CN(C)C(=O)CN(C)C(=O)CN(C)C(=O)CC[C@H](NC(=O)CC[C@H](NC(=O)CC[C@H](NC(=O)CCCCCCCCCCCCCCCCC(=O)O)C(=O)O)C(=O)O)C(=O)O)CC1)C(=O)N[C@@H](CCCN)C(=O)N1CCC[C@H]1C(=O)N[C@@H](CCCNC(=N)N)C(=O)NCC(N)=O [Compound 21, C18DA-gGlu3-Sar15-AEPipAc-Tyr-Phe-NMeLeu-Nle-Orn-Pro-Arg-Gly-NH2] (HELM PEPTIDE1{[O=C(O)CCCCCCCCCCCCCCCCC(=O)[*:2]].[gGlu].[gGlu].[gGlu].[Sar].[Sar].[Sar].[Sar].[Sar].[Sar].[Sar].[Sar].[Sar].[Sar].[Sar].[Sar].[Sar].[Sar].[Sar].[O=C(CN1CCN(CCN[*:1])CC1)[*:2]].Y.F.[meL].[Nle].[Orn].P.R.G.[am]}$$$$V2.0) | > 1 µM | 7500 µg/mL (≈ 2580 µM) | 
2 | CCCC[C@H](NC(=O)[C@H](CC(C)C)N(C)C(=O)[C@H](Cc1ccccc1)NC(=O)[C@H](Cc1ccc(O)cc1)NC(=O)CN1CCN(CCNC(=O)CN(C)C(=O)CN(C)C(=O)CN(C)C(=O)CN(C)C(=O)CN(C)C(=O)CN(C)C(=O)CN(C)C(=O)CN(C)C(=O)CN(C)C(=O)CN(C)C(=O)CN(C)C(=O)CN(C)C(=O)CC[C@H](NC(=O)CC[C@H](NC(=O)CC[C@H](NC(=O)CCCCCCCCCCCCCCCCCCC(=O)O)C(=O)O)C(=O)O)C(=O)O)CC1)C(=O)N[C@@H](CCN)C(=O)N1CCC[C@H]1C(=O)N[C@@H](CCCNC(=N)N)C(=O)NCC(N)=O [Compound 8, C20DA-gGlu3-Sar12-AEPipAc-Tyr-Phe-NMeLeu-Nle-Dbu-Pro-Arg-Gly-NH2] | 1 µM | 1900 µg/mL (≈ 701 µM) | 
3 | CCCC[C@H](NC(=O)[C@H](CC(C)C)N(C)C(=O)[C@H](Cc1ccccc1)NC(=O)[C@H](Cc1ccc(O)cc1)NC(=O)CN1CCN(CCNC(=O)CN(C)C(=O)CN(C)C(=O)CN(C)C(=O)CN(C)C(=O)CN(C)C(=O)CN(C)C(=O)CN(C)C(=O)CN(C)C(=O)CN(C)C(=O)CC[C@H](NC(=O)CC[C@H](NC(=O)CC[C@H](NC(=O)CCCCCCCCCCCCCCCCC(=O)O)C(=O)O)C(=O)O)C(=O)O)CC1)C(=O)N[C@@H](CCN)C(=O)N(C)[C@@H](C)C(=O)N[C@@H](CCCNC(=N)N)C(=O)NCC(N)=O [Compound 28, C18DA-gGlu3-Sar9-AEPipAc-Tyr-Phe-NMeLeu-Nle-Dbu-NMeAla-Arg-Gly-NH2] (HELM PEPTIDE1{[O=C(O)CCCCCCCCCCCCCCCCC(=O)[*:2]].[gGlu].[gGlu].[gGlu].[Sar].[Sar].[Sar].[Sar].[Sar].[Sar].[Sar].[Sar].[Sar].[O=C(CN1CCN(CCN[*:1])CC1)[*:2]].Y.F.[meL].[Nle].[Dab].[meA].R.G.[am]}$$$$V2.0) | > 1 µM |  | 8500 µg/mL (≈ 3460 µM)
4 | CCCC[C@H](NC(=O)[C@H](CC(C)C)N(C)C(=O)[C@H](Cc1ccccc1)NC(=O)[C@H](Cc1ccc(O)cc1)NC(=O)CN1CCN(CCNC(=O)CN(C)C(=O)CN(C)C(=O)CN(C)C(=O)CN(C)C(=O)CN(C)C(=O)CN(C)C(=O)CN(C)C(=O)CN(C)C(=O)CN(C)C(=O)CN(C)C(=O)CN(C)C(=O)CN(C)C(=O)CN(C)C(=O)CN(C)C(=O)CN(C)C(=O)CC[C@H](NC(=O)CC[C@H](NC(=O)CC[C@H](NC(=O)CCCCCCCCCCCCCCCCC(=O)O)C(=O)O)C(=O)O)C(=O)O)CC1)C(=O)N[C@@H](CCN)C(=O)N1CCC[C@H]1C(=O)N[C@@H](CCCNC(=N)N)C(=O)NCC(N)=O [Compound 26, C18DA-gGlu3-Sar15-AEPipAc-Tyr-Phe-NMeLeu-Nle-Dbu-Pro-Arg-Gly-NH2] (HELM PEPTIDE1{[O=C(O)CCCCCCCCCCCCCCCCC(=O)[*:2]].[gGlu].[gGlu].[gGlu].[Sar].[Sar].[Sar].[Sar].[Sar].[Sar].[Sar].[Sar].[Sar].[Sar].[Sar].[Sar].[Sar].[Sar].[Sar].[O=C(CN1CCN(CCN[*:1])CC1)[*:2]].Y.F.[meL].[Nle].[Dab].P.R.G.[am]}$$$$V2.0) | > 1 µM | 7700 µg/mL (≈ 2660 µM) | 
